pIC50: −log10 of the molar value.
How the values were obtained:
[1] = target: T1, Insulin-like growth factor 1 receptor (Homo sapiens, UniProt P08069); test: Inhibition of human GST-rTEV-tagged IGF1R (957 to 1367 residues) expressed in baculovirus infected insect Sf9 cells assessed as decrease in biotin-aminohexyl-AEEEEYMMMMAKKKK-NH2 phosphorylation after 1 hr by fluorometer
Insulin receptor [2] = target: T2, Insulin receptor (Homo sapiens, UniProt P06213); test: Inhibition of human GST-rTEV-tagged insulin receptor (979 to 1382 residues) expressed in baculovirus infected insect Sf9 cells assessed as decrease in biotin-aminohexyl-AEEEEYMMMMAKKKK-NH2 phosphorylation after 1 hr by fluorometer
T2 sequence (P06213 28-758 limits assumed): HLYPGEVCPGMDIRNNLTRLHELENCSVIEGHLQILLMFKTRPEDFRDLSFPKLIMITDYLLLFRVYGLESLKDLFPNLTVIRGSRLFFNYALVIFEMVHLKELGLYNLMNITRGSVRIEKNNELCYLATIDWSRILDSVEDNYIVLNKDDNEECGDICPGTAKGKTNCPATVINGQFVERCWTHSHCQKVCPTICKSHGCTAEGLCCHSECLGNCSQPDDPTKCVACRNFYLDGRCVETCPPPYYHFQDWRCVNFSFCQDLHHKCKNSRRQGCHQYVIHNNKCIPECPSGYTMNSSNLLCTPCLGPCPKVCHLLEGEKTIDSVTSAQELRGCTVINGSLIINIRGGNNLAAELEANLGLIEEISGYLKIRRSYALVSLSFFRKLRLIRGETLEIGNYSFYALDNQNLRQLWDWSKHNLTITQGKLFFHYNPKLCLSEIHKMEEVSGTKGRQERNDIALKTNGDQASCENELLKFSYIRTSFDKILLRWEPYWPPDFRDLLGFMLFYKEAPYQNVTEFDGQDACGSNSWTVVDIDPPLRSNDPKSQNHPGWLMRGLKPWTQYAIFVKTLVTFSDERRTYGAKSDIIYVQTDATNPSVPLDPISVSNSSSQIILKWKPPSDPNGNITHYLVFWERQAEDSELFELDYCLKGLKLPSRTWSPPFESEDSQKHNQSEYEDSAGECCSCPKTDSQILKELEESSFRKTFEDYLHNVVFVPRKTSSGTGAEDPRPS
T2 sequence (P06213 763-1382 limits assumed): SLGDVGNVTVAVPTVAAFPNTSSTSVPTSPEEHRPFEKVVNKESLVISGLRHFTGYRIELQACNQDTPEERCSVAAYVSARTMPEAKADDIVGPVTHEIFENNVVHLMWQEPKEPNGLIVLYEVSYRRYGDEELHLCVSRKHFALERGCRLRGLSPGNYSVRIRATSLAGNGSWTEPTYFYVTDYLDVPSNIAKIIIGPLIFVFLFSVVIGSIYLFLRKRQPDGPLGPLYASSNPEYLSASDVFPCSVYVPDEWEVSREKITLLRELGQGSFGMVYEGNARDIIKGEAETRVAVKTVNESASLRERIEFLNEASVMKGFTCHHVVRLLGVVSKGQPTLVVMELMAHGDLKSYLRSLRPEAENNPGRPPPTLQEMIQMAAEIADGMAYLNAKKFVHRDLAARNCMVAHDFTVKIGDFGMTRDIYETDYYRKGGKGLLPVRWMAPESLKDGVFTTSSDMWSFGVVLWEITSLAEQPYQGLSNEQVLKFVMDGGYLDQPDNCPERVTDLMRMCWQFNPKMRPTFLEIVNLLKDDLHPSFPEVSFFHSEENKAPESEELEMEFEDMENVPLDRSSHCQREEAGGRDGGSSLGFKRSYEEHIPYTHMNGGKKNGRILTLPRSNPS

[3] = Cytotoxicity against human COLO205 cells assessed as cell growth inhibition after 72 hrs by Cell Titre Glo assay; type: functional, cell-based; details: COLO 205, 72 h
[4] = Cytotoxicity against human NCI-H929 cells assessed as cell growth inhibition after 72 hrs by Cell Titre Glo assay; type: functional, cell-based; details: NCI-H929, 72 h
Insulin receptor [5] = target: T2, Insulin receptor; test: Inhibition of insulin-induced human insulin receptor autophosphorylation expressed in mouse NIH-3T3 cells preincubated for 2 hrs followed by insulin induction measured after 15 mins by DELFIA; type: cell-based, NIH3T3
[6] = target: T1, Insulin-like growth factor 1 receptor; test: Inhibition of IGF1-induced human IGF1R autophosphorylation expressed in mouse NIH-3T3 cells preincubated for 2 hrs followed by IGF-1 induction measured after 15 mins by DELFIA; type: cell-based, NIH3T3
[7] = Toxicity in nude mouse allografted with mouse LISN cells assessed as body weight loss at 30 to 300 mg/kg, qd for 21 days measured during compound dosing; type: organism-based; details: 504 h

| Compound | pIC50 [1] | pIC50 (Insulin receptor [2]) | pIC50 (Insulin receptor [5]) | pIC50 [6] | pIC50 [3] | pIC50 [4] | Activity [7] |
| --- | --- | --- | --- | --- | --- | --- | --- |
| COc1cc(N2CCC(N3CCN(CCF)CC3)CC2)c(Cl)cc1Nc1nccc(-c2c(-c3cccc(C(=O)Nc4c(F)cccc4F)c3)nc3ccccn23)n1 |  |  |  |  | 6.00 to 6.60 | > 6.60 |  |
| CCOc1cc(N2CCN(CCS(C)(=O)=O)CC2)c(C)cc1Nc1nccc(-c2c(-c3ccc(OC(C)C)c(C(=O)Nc4c(F)cccc4F)c3)nc3ccccn23)n1 | 6.00 to 7.00 | > 7.00 | > 7.00 | > 7.00 |  |  |  |
| COc1cc(N2CCC(N3CCN(S(C)(=O)=O)CC3)CC2)ccc1Nc1nccc(-c2c(-c3cccc(C(=O)Nc4c(F)cccc4F)c3)nc3ccccn23)n1 |  |  |  |  |  |  | Non-Toxic |
| CCOc1cc(N2CCC(N3CCN(S(C)(=O)=O)CC3)CC2)c(CC)cc1Nc1nccc(-c2c(-c3ccc(OCC)c(C(=O)Nc4c(F)cccc4F)c3)nc3ccccn23)n1 | 6.00 to 7.00 | 6.00 to 7.00 |  | > 7.00 |  |  |  |
| COc1cc(N2CCC(N3CCN(CCS(C)(=O)=O)CC3)CC2)c(C)cc1Nc1nccc(-c2c(-c3cccc(C(=O)Nc4c(F)cccc4F)c3)nc3ccccn23)n1 | > 7.00 | > 7.00 | > 7.00 |  |  |  |  |
| CCOc1cc(C2CCN(CCS(C)(=O)=O)CC2)ccc1Nc1nccc(-c2c(-c3ccc(OC(C)C)c(C(=O)Nc4c(F)cccc4F)c3)nc3ccccn23)n1 | 6.00 to 7.00 | 6.00 to 7.00 |  | > 7.00 |  |  |  |

The next lines start with results.

| pIC50 [1] | pIC50 (Insulin receptor [2]) | pIC50 (Insulin receptor [5]) | pIC50 [6] | Compound | pIC50 [3] | pIC50 [4] | Activity [7] |
| --- | --- | --- | --- | --- | --- | --- | --- |
| > 7.00 | > 7.00 |  |  | COc1cc(N2CCC(CCS(C)(=O)=O)CC2)ccc1Nc1nccc(-c2c(-c3ccc(OC)c(C(=O)Nc4c(F)cccc4F)c3)nc3cc(F)ccn23)n1 |  |  |  |
| > 7.00 | > 7.00 |  |  | COc1cc(C2CCN(CCS(C)(=O)=O)CC2)ccc1Nc1nccc(-c2c(-c3ccc(OC)c(C(=O)Nc4c(F)cccc4F)c3)nc3ccccn23)n1 |  |  |  |
| > 7.00 | > 7.00 | > 7.00 |  | COc1cc(N2CCC(CCS(C)(=O)=O)CC2)c(C)cc1Nc1nccc(-c2c(-c3ccc(OC)c(C(=O)Nc4c(F)cccc4F)c3)nc3cc(F)ccn23)n1 |  |  |  |
| > 7.00 | > 7.00 | > 7.00 |  | CCOc1ccc(-c2nc3ccccn3c2-c2ccnc(Nc3ccc(C4CCN(CCS(C)(=O)=O)CC4)cc3OC)n2)cc1C(=O)Nc1c(F)cccc1F |  |  |  |

Source: ChEMBL document CHEMBL3882727, “Imidazopyridine Kinase Inhibitors” (2008)
